Patent publication US20060035977A1, “Uses of acylated aminopropanediols and sulphur and nitrogen analogues of same f” (Gentif, priority 2003, published 2006)

Legend:
[1] = Effects on plasma lipids in rats in vivo; settings: Sprague-Dawley rats, 300 mg/kg/day, intragastric gavage, once a day for 15 days
Procedure: Sprague-Dawley rats weighing 200 to 230 g (Charles River, L'Arbresle, France) were housed in a 12-hour light/dark cycle at a constant temperature of 20±3° C. After a 1-week acclimatization period, rats were weighed and distributed into groups of 8 animals selected such that the distribution of plasma cholesterol and triglyceride levels was uniform. The test compounds were suspended in a vehicle (0.5% carboxymethylcellulose (CMC) and 0.1% Tween) and administered by intragastric gavage at the indicated doses, once a day for 15 days. Animals had access to food and water ad libitum. At the end of the experiments, animals were weighed and sacrificed under anesthesia after a 5-hour fast. Blood was collected on EDTA. Plasma was isolated by centrifugation at 3000 rpm for 20 minutes. […]
Lipid concentrations in plasma (total cholesterol and triglycerides) were determined by a […] assay (Bio-Mérieux, Marcy I'Etoile, France) according to the supplier's instructions. Plasma concentrations of apolipoproteins AII, AI and CIII were determined as previously described (Raspe, Madsen et al. 1999) and (Asset, Staels et al. 1999).
To separate the lipoproteins according to size, 300 μl of plasma were loaded on a Sepharose 6HR 10/30 column (Pharmacia, Uppsala, Sweden) and eluted at a constant flow rate (0.2 ml/minute) in PBS (pH 7.2). Optical density of the eluent was recorded at 280 nm. […]

LDL = assay: Protection against LDL oxidation induced by copper (conjugated diene formation); type: biochemical; settings: for antioxidant activity on LDL oxidation induced by copper: conjugated diene formation, 30° C., 8 hours; for shift in the lag phase latency (delay): LDL oxidation induced by copper, conjugated dienes at 234 nm, relative to control (FIG. 4A)
Procedure: LDL were prepared as described in Lebeau et al. (Lebeau, Furman et al. 2000). The solutions of the test compounds were prepared at 10^−2 M in ethanol and diluted in PBS so that the final concentration ranged from 0.1 to 100 μM with a total ethanol concentration of 1% (VN).
Before oxidation, EDTA was removed from the LDL preparation by dialysis. The oxidation reaction was then carried out at 30° C. by adding 100 μl of 16.6 μM CuSO4 to 800 μl of LDL (125 μg protein/ml) and 100 μl of a test compound solution. The formation of dienes, the species to be followed, was measured by the optical density at 234 nm in the samples treated with the compounds in the presence or absence of copper. Optical density at 234 nm was measured every 10 minutes for 8 hours on a thermostated spectrophotometer (Kontron Uvikon 930). The analyses were carried out in triplicate. A compound was considered to have antioxidant activity when it shifted the lag phase latency relative to the control sample. […] FIG. 4 presents an example of the results obtained with the inventive compounds.

Gal4/PPARα = target: T1, Gal4/PPARα (Homo sapiens, UniProt Q07869); assay: Gal4/PPARα transactivation system in HepG2 cells (luciferase reporter); settings: 24 h, HepG2 cells transfected with Gal4/PPARα plasmids, compound in PC liposomes
T1 sequence (Q07869 239-466 limits assumed): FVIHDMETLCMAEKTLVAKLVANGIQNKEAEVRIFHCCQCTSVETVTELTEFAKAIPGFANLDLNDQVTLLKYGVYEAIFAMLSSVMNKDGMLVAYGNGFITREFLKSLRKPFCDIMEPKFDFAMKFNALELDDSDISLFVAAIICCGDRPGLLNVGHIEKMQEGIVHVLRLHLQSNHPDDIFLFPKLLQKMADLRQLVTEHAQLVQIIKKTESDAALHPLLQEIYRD
Procedure: PPAR activation was tested in vitro in RK13 fibroblast cell lines or in a hematocyte line HepG2 by measuring the transcriptional activity of chimeras composed of the DNA binding domain of the yeast gal4 transcription factor and the ligand binding domain of the different PPARs. The example below is given for HepG2 cells.
HepG2 cells were from ECACC (Porton Down, UK) and were grown in DMEM medium supplemented with 10% (V/V) fetal calf serum, 100 U/ml penicillin (Gibco, Paisley, UK) and 2 mM L-glutamine (Gibco, Paisley, UK). The culture medium was changed every two days. Cells were kept at 37° C. in a humidified 95% air/5% CO2 atmosphere.
HepG2 cells were seeded in 24-well culture dishes at 5×10^4 cells/well and transfected for 2 hours with the reporter plasmid pG5TkpGL3 (50 ng/well), the expression vectors pGal4-f, pGal4-mPPARα, pGal4-hPPARα, pGal4-hPPARγ, or pGal4-hPPARβ (100 ng/well) and the transfection efficiency control vector pRL-CMV (1 ng/well) according to the previously described protocol (Raspe, Madsen et al. 1999), then incubated for 36 hours with the test compounds. At the end of the experiment, the cells were lysed (Gibco, Paisley, UK) and luciferase activity was determined with a Dual-Luciferase™ Reporter Assay System kit (Promega, Madison, Wisc., USA) according to the supplier's instructions. The protein content of the cell extracts was then measured with the Bio-Rad Protein Assay kit (Bio-Rad, Munich, Germany) as directed by the supplier.
The results are expressed as the induction factor (luminescent signal of treated cells divided by luminescent signal of untreated cells) after the different treatments.

Compound | melting point | induction factor (luminescent signal of treated cells divided by luminescent signal of untreated cells) (Gal4/PPARα; 5 μM) | induction factor (luminescent signal of treated cells divided by luminescent signal of untreated cells) (Gal4/PPARα; 15 μM) | induction factor (luminescent signal of treated cells divided by luminescent signal of untreated cells) (Gal4/PPARα; 50 μM) | induction factor (luminescent signal of treated cells divided by luminescent signal of untreated cells) (Gal4/PPARα; 100 μM) | antioxidant activity on LDL oxidation induced by copper (LDL) | other results
CCCCCCCCCCCCCCSCC(=O)NCC(CNC(=O)CSCCCCCCCCCCCCCC)OC(=O)CSCCCCCCCCCCCCCC [Ex 11, 1,3-ditetradecylthioacetylamino-2-(tetradecylthioacetyloxy)propane] | – | – | – | – | – | exhibit intrinsic antioxidant properties | total plasma cholesterol ([1]; D0, D7, D14 (FIG. 3A)): lowered; plasma triglycerides ([1]; D0, D7, D14 (FIG. 3B)): lowered
CCCCCCCCCCCCCCCC(=S)OC(CN)CN.Cl.Cl | 224 °C (dec.) | – | – | – | – | – | –
CCCCCCCCCCCCCCCC(=S)SC(CN)CN.Cl.Cl | 181 °C (dec.) | – | – | – | – | – | –
1,2-(dipalmitoyloxy)-3-tetradecylthioacetylaminopropane [Ex 4] | – | – | – | – | – | exhibit intrinsic antioxidant properties | shift in the lag phase latency (delay) (LDL): 34.3%
CCCCCCCCCCCCCCSCC(=O)NCC(O)CO (stereo not drawn) [Ex 2, 3-(tetradecylthioacetylamino)propane-1,2-diol] | – | 1.5 fold | 7.7 fold | 19.8 fold | 19.2 fold | exhibit intrinsic antioxidant properties | shift in the lag phase latency (delay) (LDL): 13.4%

Further lines, with some results ahead:

melting point | induction factor (luminescent signal of treated cells divided by luminescent signal of untreated cells) (Gal4/PPARα; 5 μM) | induction factor (luminescent signal of treated cells divided by luminescent signal of untreated cells) (Gal4/PPARα; 15 μM) | induction factor (luminescent signal of treated cells divided by luminescent signal of untreated cells) (Gal4/PPARα; 50 μM) | induction factor (luminescent signal of treated cells divided by luminescent signal of untreated cells) (Gal4/PPARα; 100 μM) | Compound | antioxidant activity on LDL oxidation induced by copper (LDL) | other results
104 to 108 °C | – | – | – | – | CCCCCCCCCCCCCCCC(=O)NCC(O)CO (stereo not drawn) [Ex 3, 3-(palmitoylamino)propane-1,2-diol] | – | –
– | 1.2 fold | 2.5 fold | 7 fold | 10.5 fold | 1,2-(ditetradecylthioacetyloxy)-3-tetradecylthioacetylaminopropane [Ex 5] | exhibit intrinsic antioxidant properties | –
– | 1.1 fold | 2.2 fold | 9.6 fold | 14.5 fold | 1,2-(ditetradecylthioacetyloxy)-3-palmitoylaminopropane [Ex 6] | exhibit intrinsic antioxidant properties | –
